Source: publication PMC6968587, “Discovery of 3-alkyl-5-aryl-1-pyrimidyl-1H-pyrazole derivatives as a novel selective inhibitor scaffold of JNK3” (Journal of Enzyme Inhibition and Medicinal Chemistry, 2019)
Where two headings read alike, the source gives them in different places.

Tests used:
Type in all cases: biochemical
[1] = target: T1, JNK3 (Homo sapiens, UniProt P53779); experiment: JNK3 enzymatic inhibitory activity (IC50)
Source text: In an effort to reduce the molecular weight, the piperidine ring was diversified into pyrrolidine and azetidine with less carbon atoms.

[2] = system: 38 selected protein kinases; experiment: Kinase panel screening, single dose 10 μM, in duplicate: other kinases of the 38-kinase panel
Protocol: (§1) Next, we used kinase panel screening in duplicate for compound 7a over 38 different kinases at a single-dose concentration of 10 μM (Table 2). The compound was indeed a selective JNK3 inhibitor with an excellent selectivity profile.

[3] = target: T2, GSK3β (Homo sapiens, UniProt P49841); experiment: GSK3β enzymatic activity (IC50), Reaction Biology Kinase HotSpot
T2 construct: purchased Reaction Biology Corp. (Kinase HotSpot service)
T2 sequence (P49841 whole entry): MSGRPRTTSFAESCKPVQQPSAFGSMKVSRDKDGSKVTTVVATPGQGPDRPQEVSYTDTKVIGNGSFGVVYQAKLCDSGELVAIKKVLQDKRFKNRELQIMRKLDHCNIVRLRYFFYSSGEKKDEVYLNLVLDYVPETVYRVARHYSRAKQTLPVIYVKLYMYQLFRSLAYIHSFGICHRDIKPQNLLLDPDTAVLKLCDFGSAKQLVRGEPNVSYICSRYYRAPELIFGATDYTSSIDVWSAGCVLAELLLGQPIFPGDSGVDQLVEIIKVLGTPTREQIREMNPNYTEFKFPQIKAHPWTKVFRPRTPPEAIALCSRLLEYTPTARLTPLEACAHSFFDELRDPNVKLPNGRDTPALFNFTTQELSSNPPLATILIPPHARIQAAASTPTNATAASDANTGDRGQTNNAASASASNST

[4] = target: T1, JNK3; experiment: Kinase panel screening, single dose 10 μM, in duplicate: JNK3; conditions: read-out: inhibitory activity on JNK3
Protocol: as §1

[5] = enzymatic activity, Table 1, read-out: JNK3 IC50

T1 sequence (P53779 whole entry): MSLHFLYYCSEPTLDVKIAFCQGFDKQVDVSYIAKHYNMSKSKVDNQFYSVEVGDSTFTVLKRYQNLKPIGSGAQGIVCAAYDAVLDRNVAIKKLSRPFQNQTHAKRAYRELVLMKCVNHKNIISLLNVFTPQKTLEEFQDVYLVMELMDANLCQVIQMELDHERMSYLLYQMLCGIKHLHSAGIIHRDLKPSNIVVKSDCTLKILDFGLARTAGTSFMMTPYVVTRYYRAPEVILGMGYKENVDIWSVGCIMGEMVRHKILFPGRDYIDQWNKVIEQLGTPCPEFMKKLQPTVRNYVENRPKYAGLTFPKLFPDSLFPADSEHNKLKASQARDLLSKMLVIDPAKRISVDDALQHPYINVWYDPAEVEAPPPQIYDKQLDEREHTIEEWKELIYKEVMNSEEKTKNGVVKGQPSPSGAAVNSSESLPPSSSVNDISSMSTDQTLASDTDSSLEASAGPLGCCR

| IC50 [1, 5] | SMILES | other results |
| --- | --- | --- |
| 8.57 µM | N#CCc1cc(-c2ccc3c(c2)OCO3)n(-c2ccnc(N[C@H]3CCN(C(=O)C4CC4)C3)n2)n1 [9c] |  |
| 5.58 µM | N#CCc1cc(-c2ccc3c(c2)OCO3)n(-c2ccnc(NC3CN(C(=O)C4CC4)C3)n2)n1 [10c] |  |
| 2.84 µM | N#CCc1cc(-c2ccc(Cl)c(Cl)c2)n(-c2ccnc(NC3CN(C(=O)C4CC4)C3)n2)n1 [10a] |  |
| 0.903 µM | COC(=O)Cc1cc(-c2ccc(Cl)c(Cl)c2)n(-c2ccnc(N[C@H]3CCCN(C(=O)C4CC4)C3)n2)n1 [12a] |  |
| 3.25 µM | N#CCc1cc(-c2ccc3c(c2)CCO3)n(-c2ccnc(N[C@H]3CCN(C(=O)C4CC4)C3)n2)n1 [9d] |  |
| 2.07 µM | N#CCc1cc(-c2ccc3ccccc3c2)n(-c2ccnc(NC3CN(C(=O)C4CC4)C3)n2)n1 [10b] |  |
| 1.46 µM | NC(=O)Cc1cc(-c2ccc(Cl)c(Cl)c2)n(-c2ccnc(N[C@H]3CCCN(C(=O)C4CC4)C3)n2)n1 [11a] |  |
| 2.9 µM | N#CCc1cc(-c2ccc3ccccc3c2)n(-c2ccnc(N[C@H]3CCN(C(=O)C4CC4)C3)n2)n1 [9b] |  |

The remaining lines, values behind:

| SMILES | IC50 [1, 5] | other results |
| --- | --- | --- |
| N#CCc1cc(-c2ccc3c(c2)OCO3)n(-c2ccnc(N[C@H]3CCCN(C(=O)C4CC4)C3)n2)n1 [7c] | 4.6 µM |  |
| N#CCc1cc(-c2cccc([N+](=O)[O-])c2)n(-c2ccnc(N[C@@H]3CCN(C(=O)C4CC4)C3)n2)n1 [8e] | > 10 µM |  |
| N#CCc1cc(-c2ccc3c(c2)OCO3)n(-c2ccnc(N[C@@H]3CCN(C(=O)C4CC4)C3)n2)n1 [8c] | 2.18 µM |  |
| N#CCc1cc(-c2ccc3ccccc3c2)n(-c2ccnc(N[C@@H]3CCN(C(=O)C4CC4)C3)n2)n1 [8b] | 0.361 µM |  |
| N#CCc1cc(-c2ccc([N+](=O)[O-])cc2)n(-c2ccnc(N[C@H]3CCCN(C(=O)C4CC4)C3)n2)n1 [7f] | > 10 µM |  |
| N#CCc1cc(-c2ccc(Cl)c(Cl)c2)n(-c2ccnc(N[C@@H]3CCN(C(=O)C4CC4)C3)n2)n1 [8a, (R)-2-(1-(2-((1-(cyclopropanecarbonyl)pyrrolidin-3-yl)amino)pyrimidin-4-yl)-5-(3,4-dichlorophenyl)-1H-pyrazol-3-yl)acetonitrile] |  | IC50 [1]: 0.227 µM |
| N#CCc1cc(-c2ccc3c(c2)CCO3)n(-c2ccnc(N[C@@H]3CCN(C(=O)C4CC4)C3)n2)n1 [8d] | 4.42 µM |  |
| N#CCc1cc(-c2ccc(Cl)c(Cl)c2)n(-c2ccnc(N[C@H]3CCCN(C(=O)C4CC4)C3)n2)n1 [7a] | 0.635 µM | inhibition activity for most other kinases except GSK3β [2]: less than 20%; IC50 ([3]; Table 2, Kinase HotSpot service, read-out: Compound IC50* on GSK3β): 3.96 µM; selectivity for JNK3 over GSK3β in terms of IC50 ([3]; ratio of IC50 GSK3β / JNK3): six fold selective; inhibition at 10 µM [4]: 90% |
| N#CCc1cc(-c2ccc3c(c2)CCO3)n(-c2ccnc(N[C@H]3CCCN(C(=O)C4CC4)C3)n2)n1 [7d] | 7.9 µM |  |
| N#CCc1cc(-c2ccc3ccccc3c2)n(-c2ccnc(N[C@H]3CCCN(C(=O)C4CC4)C3)n2)n1 [7b] | 0.824 µM |  |
| N#CCc1cc(-c2ccc([N+](=O)[O-])cc2)n(-c2ccnc(N[C@@H]3CCN(C(=O)C4CC4)C3)n2)n1 [8f] | 7.89 µM |  |
| N#CCc1cc(-c2ccc(Cl)c(Cl)c2)n(-c2ccnc(N[C@H]3CCN(C(=O)C4CC4)C3)n2)n1 [9a] |  | IC50 [1]: 3.11 µM |
